Six molecules from patent US12617772B2, “Hydroxypyridine HSD17B13 inhibitors and uses thereof” (INIPHARM, INC., priority 2021, dated 2026) can be followed below.

In this experiment the target is T1, HSD17B13 (Homo sapiens, UniProt Q7Z5P4).
T1 construct: His; made in house; host or cells: E. coli
T1 sequence (Q7Z5P4 20-300): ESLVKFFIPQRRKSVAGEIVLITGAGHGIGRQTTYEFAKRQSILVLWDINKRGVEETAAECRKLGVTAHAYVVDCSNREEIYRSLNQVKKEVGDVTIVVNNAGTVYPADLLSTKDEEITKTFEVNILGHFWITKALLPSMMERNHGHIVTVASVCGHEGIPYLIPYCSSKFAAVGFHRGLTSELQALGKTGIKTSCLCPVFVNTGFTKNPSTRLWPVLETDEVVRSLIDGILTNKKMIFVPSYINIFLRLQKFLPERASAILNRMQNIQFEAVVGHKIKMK
In words: LC/MS estrone detection assay: conversion of estradiol to estrone by HSD17B13. The class given is biochemical. Conditions: 4 μM estradiol, 6 mM NAD, 30 nM HSD17B13 enzyme (E. coli expressed His-tagged), 2 hours at 26.5° C. Here is the method: Example A: Estrone Detection Assay for Evaluation of HSD17ß13 Activity and Identification of Inhibitors
The liquid chromatography/mass spectrometry (LC/MS) estrone detection assay monitors the conversion of estradiol to estrone by HSD17B13. This assay was undertaken in a 96 wp format (Eppendorf deep well Plate 96/500) in an 80 μl reaction volume containing: 4 μM of Estradiol (E2; Cayman; #10006315), 6 mM NAD (Sigma; #N0623) and 30 nM HSD17B13 enzyme (in-house; E. coli expressed His-tagged, purified, soluble protein) in a reaction containing […] potassium phosphate buffer pH 7.4, with 0.5% vehicle (DMSO). Reactions were incubated for 2 hours at 26.5° C., and estradiol (E2) conversion to estrone (E1) was quantitated by LC-MS/MS based analyte detection for both E2 and E1 using LCMS grade reagents.
Reactions were terminated by the addition of two volumes of acetonitrile (MeCN: LCMS grade; CAS #75/05/8) containing deuterated (D4)-E1 used as internal standard (Clear Synth: #CS-T-54273; 500 ng/ml final concentration). Samples were applied to pre-prepared Bond Elut-C18 extraction cartridges (3 mL; Agilent; #12102028), washed and eluted in MeCN. Eluates were dried under nitrogen and re-suspended in 60% methanol (LCMS grade methanol; CAS #67/56/1) before submission for analysis. Aqueous linearity for E2 and E1 were included for quantification.
Analysis of samples was undertaken on a XBridge BEH C18 column (Waters; #186003033) using 0.1% Diethyl Amine in MeCN (mobile phase A; DEA CAS #109-89-7) and 0.1% Diethyl Amine in milli-Q water (mobile phase B) in a 3 min gradient allowing 25% B. Analytes were detected in negative mode using MRM analysis, with E2 having a RT of 1.85 min and E1 having a RT of 2 min. Activity of the enzyme, in the absence of NAD^+, was used to evaluate specificity of conversion. Enzyme activity in the presence of test samples was expressed as a percentage of the uninhibited enzyme activity, and plotted versus inhibitor concentration. Non-linear regression was performed using a four-parameter logistic model and GraphPad Prism software (GraphPad Software, La Jolla, CA). All assessments were undertaken in duplicate evaluations and pooled during extraction process and subsequently injected as duplicates for LC-MS/MS analysis.
Consider `O=C(Nc1cccc2ncn(CCc3ccccc3OC(F)(F)F)c(=O)c12)c1ccc(O)c(C(F)(F)F)n1` [Example 1, 5-hydroxy-N-(4-oxo-3-(2-(trifluoromethoxy)phenethyl)-3,4-dihydroquinazolin-5-yl)-6-(trifluoromethyl)picolinamide], for which the IC50 (as a rule, the midpoint of a concentration-inhibition curve) was ≤ 100 nM.
For the molecule `O=C(Nc1cccc2ncn(CCc3ccccc3C(F)(F)F)c(=O)c12)c1ccc(O)c(C(F)(F)F)n1` [Example 2, 5-hydroxy-N-(4-oxo-3-(2-(trifluoromethyl)phenethyl)-3,4-dihydroquinazolin-5-y1)-6-(trifluoromethyl)picolinamide], the IC50 lay within 100 to 500 nM.
Consider `O=C(Nc1cccc2ncn(Cc3ccccc3OC(F)(F)F)c(=O)c12)c1ccc(O)c(C(F)(F)F)n1` [Example 3, 5-hydroxy-N-(4-oxo-3-{[2-(trifluoromethoxy)phenyl]methyl}-3,4-dihydroquinazolin-5-yl)-6-(trifluoromethyl) pyridine-2-carboxamide], for which the IC50 is ≤ 100 nM.
For `CC(C)(C)CCNC(=O)c1sccc1NC(=O)c1ccc(O)c(C(F)(F)F)n1` [Example 5, N-(2-((3,3-dimethylbutyl)carbamoyl)thiophen-3-y1)-5-hydroxy-6-(trifluoromethyl) picolinamide], the IC50 was ≤ 100 nM.
Then `COc1ccccc1CCn1cnc2cccc(NC(=O)c3ccc(O)c(C(F)(F)F)n3)c2c1=O` [Example 6, 5-hydroxy-N-(3-(2-methoxyphenethyl)-4-oxo-3,4-dihydroquinazolin-5-yl)-6-(trifluoromethyl) picolinamide], with ≤ 100 nM.
`O=C(Nc1cc(Cl)sc1C(=O)NCCc1ccccc1OC(F)(F)F)c1ccc(O)c(C(F)(F)F)n1` [Example 7, N-(5-chloro-2-((2-(trifluoromethoxy)phenethyl)carbamoyl)thiophen-3-y1)-5-hydroxy-6-(trifluoromethyl)picolinamide] came in with an IC50 of 100 to 500 nM.
